In the assay the test system is RPEMYC^H2B-GFP cells. The experiment in a line: Phenotypic screening assay (mitotic arrest, polyploidy). The assay is classed as cell-based. The settings on record: 1 nM to 30 μM; for IC50: read-out: Proliferative arrest (>50%). As for the experimental part:
We have previously developed a mechanism-informed phenotypic screening assay to identify novel antimitotic agents. Equipped with a prior understanding of the versatile functions of the chromosomal passenger protein (CPP) complex in orchestrating karyokinesis and cytokinesis, the screening assay is to score for phenotypes typically seen when the CPP complex is disabled. Specifically, the parameters for a positive hit are a temporary elevation of mitotic index (MI) at 24 hours of drug treatment and an accumulation of polyploid cells at 48 hours of drug treatment, indicative of mitotic arrest and cytokinetic failure respectively. These parameters exclude compounds that elicit only a prolonged arrest of cells in mitosis, a phenotype typically provoked by spindle toxins. The screening procedure is briefly summarized here. RPEMYC^H2B-GFP cells engineered to express a Histone 2B-EGFP fusion protein were passaged as batches of 96-well plates, 18-24 hours before exposure to the chemical compounds of the present disclosure at concentrations from 1 nM to 30 μM. At 24, 48 or 72 hours after initiation of treatment, cells were analyzed for either an arrest in mitosis or a change in DNA content by GE IN-Cell Analyzer 2000. As set forth in Table 2 below, a value of greater than or equal to 1 nM and less than or equal to 1.0 μM is marked “A”; a value greater than 1.00 μM and less than or equal to 10.0 μM is marked “B”; a value greater than 10.0 μM and less than or equal to 30.0 μM is marked “C”; and a value greater than 30.0 μM is marked “D.”

The mark [1] stands for this setting: read-out: Min. Effective conc. for Polyploidy (≥5%).

SMILES strings stand for the structures. Where two headings read alike, the source gives them in different places.

Regarding `COc1cc(Oc2ncnc3ccccc23)cc(-n2cccn2)c1` [Compound 73, 4-(3-Methoxy-5-(1H-pyrazol-1-yl)phenoxy) quinazoline], the IC50 was in the range of 10 to 30 µM. In addition, under setting [1], the minimal effective concentration is 10 to 30 µM. Also, the minimal effective concentration (read-out: Mitotic Arrest (≥5%)) lay in the range of 10 to 30 µM.

As to `COc1cc(Oc2ncnc3cc(OC)c(OC)cc23)cc(-n2cccn2)c1` [Compound 74, 4-(3-methoxy-5-(1H-pyrazol-1-yl)phenoxy)-6,7-dimethoxyquinazoline], the IC50 is 10 to 30 µM. Further, the minimal effective concentration under setting [1] was in the range of 10 to 30 µM. Moreover, under “read-out: Mitotic Arrest (≥5%)”, the minimal effective concentration was in the range of 10 to 30 µM.

On to `COc1cc(Oc2ncnc3cc(OC)c(OC)cc23)cc(-n2cnc(C)c2)c1` [Compound 75, 4-(3-Methoxy-5(4-methyl-H-imidazol-1-yl)phenoxy)-6,7-dimethoxyquinazoline], for which the IC50 is 0.001 to 1 µM. Also, the minimal effective concentration under setting [1] lay in the range of 0.001 to 1 µM. For the same compound, the minimal effective concentration (read-out: Mitotic Arrest (≥5%)) was 0.001 to 1 µM.

For `COc1cc(Oc2ncnc3ccccc23)cc(-n2cnc(C)c2)c1` [Compound 76, 4-(3-Methoxy-5-(4-methyl-1H-imidazol-1-yl)phenoxy)quinazoline], the IC50 was in the range of 1 to 10 µM. In addition, the minimal effective concentration under setting [1] is 1 to 10 µM. Also, under “read-out: Mitotic Arrest (≥5%)”, the minimal effective concentration lay within 1 to 10 µM.

With `COc1cc(Oc2ccnc3ccccc23)cc(-n2cnc(C)c2)c1` [Compound 77, 4-(3-Methoxy-5-(4-methyl-1H-imidazol-1-yl)phenoxy)quinoline], the IC50 was 0.001 to 1 µM. The minimal effective concentration under setting [1] lay in the range of 0.001 to 1 µM. In addition, the minimal effective concentration (read-out: Mitotic Arrest (≥5%)) fell in the range of 0.001 to 1 µM.

Take `COc1cc(Oc2ncnc3ccccc23)cc(-n2ccnc2)c1` [Compound 78]: the IC50 lay in the range of 1 to 10 µM. Further, the minimal effective concentration under setting [1] fell in the range of 1 to 10 µM. For the setting “read-out: Mitotic Arrest (≥5%)”, the minimal effective concentration is 1 to 10 µM.

Turning to `COc1cc(Oc2ncnc3cc(OC)c(OC)cc23)cc(-n2ccnc2)c1` [Compound 79, 4-(3-(1H-Imidazol-1-yl)-5-methoxyphenoxy)-6,7-dimethoxyquinazoline], the IC50 lay in the range of 10 to 30 µM. In addition, under setting [1], the minimal effective concentration is 10 to 30 µM. Also, the minimal effective concentration (read-out: Mitotic Arrest (≥5%)) lay in the range of 10 to 30 µM.

In the case of `COc1cc(Oc2ccnc3cc(OC)c(C(N)=O)cc23)cc(O[C@H]2CCOC2)c1` [Compound 80, (S)-7-methoxy-4-(3-methoxy-5-((tetrahydrofuran-3-yl)oxy)phenoxy)quinoline-6-carboxamide], the minimal effective concentration is, setting by setting: under setting [1], 0.001 to 1 µM; (read-out: Mitotic Arrest (≥5%)) 0.001 to 1 µM.

Consider `COc1cc(Oc2ccnc3cc(OC)c(C(N)=O)cc23)cc(O[C@@H]2CCOC2)c1` [Compound 81, (R)-7-methoxy-4-(3-methoxy-5-((tetrahydrofuran-3-yl)oxy)phenoxy)quinoline-6-carboxamide], for which the minimal effective concentration lay within 0.001 to 1 µM under setting [1] and 0.001 to 1 µM (read-out: Mitotic Arrest (≥5%)).

For the compound `COc1cc2nccc(Oc3cc(OC4CCOC4)cc(OC4CCOC4)c3)c2cc1C(N)=O` (stereo not drawn) [Compound 82, 4-(3,5-bis((tetrahydrofuran-3-yl)oxy)phenoxy)-7-methoxyquinoline-6-carbonamide], the minimal effective concentration under setting [1] was in the range of 1 to 10 µM and the minimal effective concentration (read-out: Mitotic Arrest (≥5%)) lay in the range of 1 to 10 µM.

For the compound `COc1cc(OCC2CCOC2)cc(Oc2ccnc3cc(OC)c(C(N)=O)cc23)c1` (stereo not drawn) [Compound 83, 7-methoxy-4-(3-methoxy-5-((tetrahydrofuran-3-yl)methoxy)phenoxy)quinoline-6-carboxamide], the minimal effective concentration reads like this: under setting [1], 0.001 to 1 µM; (read-out: Mitotic Arrest (≥5%)) 0.001 to 1 µM.

Regarding `COc1cc(Oc2ccnc3cc(OC)c(C(N)=O)cc23)cc(-n2cc(C)cn2)c1` [Compound 84], the minimal effective concentration reads like this: under setting [1], 0.001 to 1 µM; (read-out: Mitotic Arrest (≥5%)) 0.001 to 1 µM.

Turning to `COc1cc(Oc2ccnc3cc(OC)c(C(N)=O)cc23)cc(-n2ccc(C)n2)c1` [Compound 85, 7-methoxy-4-(3-methoxy-5-(3-methyl-1H-pyrazol-1-yl)phenoxy)quinoline-6-carboxamide], the minimal effective concentration is 0.001 to 1 µM under setting [1] and 0.001 to 1 µM (read-out: Mitotic Arrest (≥5%)).

(Values after US20240239806A1, “COMPOUNDS, COMPOSITIONS AND METHODS OF TREATING DISORDERS” (Chengdu Anticancer Bioscience, Ltd., priority 2021, published 2024).)
